# Data from patent publication US20180057505A1, “BICYCLIC HETEROARYL COMPOUNDS USEFUL AS INHIBITORS OF THE PAR-2 SIGNALING PATHWAY” (VERTEX PHARMACEUTICALS INCORPORATED, priority 2015, published 2018).
# Experiments:
# Format in all cases: cell-based
# PAR2 (HT-29 cells) [1] = target: T1, PAR2 (HT-29 cells) (Homo sapiens, UniProt P55085); assay: Ca FLIPR TETRA assay, ANTAGONIST mode, activator 8 μM SLIGKV; details: HT-29 cells, activator 8 μM SLIGKV; maximal antagonist concentration per Method (A: 0.1, 1 or 2 μM; B: 50 μM)
# T1 construct: host or cells: HT-29
# T1 sequence (P55085 26-397): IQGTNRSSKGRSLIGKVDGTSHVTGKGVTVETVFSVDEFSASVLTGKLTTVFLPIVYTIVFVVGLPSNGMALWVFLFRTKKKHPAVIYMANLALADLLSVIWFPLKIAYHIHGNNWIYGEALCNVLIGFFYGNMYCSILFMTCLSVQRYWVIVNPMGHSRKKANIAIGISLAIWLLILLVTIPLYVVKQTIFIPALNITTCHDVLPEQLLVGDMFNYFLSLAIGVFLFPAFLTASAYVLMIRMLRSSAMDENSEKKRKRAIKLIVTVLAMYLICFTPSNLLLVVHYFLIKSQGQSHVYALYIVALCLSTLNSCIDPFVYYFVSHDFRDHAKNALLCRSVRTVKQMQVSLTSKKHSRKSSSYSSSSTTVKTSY
# In short: (§1)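 Inhibition of agonist-evoked calcium signals was measured in human HT-29 colon cells cultured overnight in 1% FBS McCoy's medium. Test compounds preincubated 30 min at r.t.; activators at final concentrations as stated for each readout.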
# PAR2 (HT-29 cells) [2] = target: T1, PAR2 (HT-29 cells); assay: Ca FLIPR TETRA assay, ANTAGONIST mode, activator 3.1 U/mL trypsin; details: HT-29 cells, activator 3.1 U/mL trypsin; maximal antagonist concentration per Method (A: 0.1, 1 or 2 μM; B: 50 μM)
# In short: as §1
# [3] = test system: Thrombin-stimulated Ca2+ response in HT-29 cells; assay: Ca FLIPR TETRA assay, ANTAGONIST mode, activator 1 U/mL Thrombin; details: HT-29 cells, activator 1 U/mL Thrombin
# In short: as §1
# [4] = test system: UTP-stimulated Ca2+ response in HT-29 cells; assay: Ca FLIPR TETRA assay, ANTAGONIST mode, activator 0.6 μM UTP; details: HT-29 cells, activator 0.6 μM UTP
# In short: as §1
SMILES,IC50 (PAR2 (HT-29 cells) [1]) [µM],IC50 (PAR2 (HT-29 cells) [2]) [µM],IC50 ([3]; Homo sapiens) [µM],IC50 ([4]; Homo sapiens) [µM],IC50 [3] [µM],IC50 [4] [µM]
Cc1cc(C(=O)N2CCN(C(=O)c3cc4nc(-c5ccc(F)cc5)cc(C(C)(C)C)c4o3)C(C)(C)C2)no1 [Example I-186],0.0007,0.001,> 1,> 1,–,–
COC(=O)C1CC(C(=O)N2CCN(C(=O)c3cc4nc(-c5ccc(F)cc5)cc(C(C)(C)C)c4o3)C(C)(C)C2)C1 (stereo not shown) [Example I-188],0.003,0.006,> 1,> 1,–,–
CC(C)(C)c1cc(-c2ccc(F)cc2)nc2cc(C(=O)N3CCN(C(=O)C4CC(C(=O)O)C4)CC3(C)C)oc12 (stereo not shown) [Example I-189],0.017,0.028,> 1,> 1,–,–
CC(C)(C)c1cc(-c2ccc(F)cc2)nc2cc(C(=O)N3CCN(C(=O)c4ccc(C(=O)O)cc4)CC3(C)C)oc12 [Example I-192],0.014,0.013,> 1,> 1,–,–
CC(C)(C(=O)O)C(=O)N1CCN(C(=O)c2cc3nc(-c4ccc(F)cc4)cc(C(C)(C)C)c3o2)C(C)(C)C1 [Example I-195],0.096,0.233,> 1,> 1,–,–
CC(C)(CC(=O)N1CCN(C(=O)c2cc3nc(-c4ccc(F)cc4)cc(C(C)(C)C)c3o2)C(C)(C)C1)C(=O)O [Example I-196],0.0007,0.001,> 1,> 1,–,–
CC(C)(C)c1cc(-c2ccc(F)cc2)nc2cc(C(=O)N3CCN(C(=O)[C@H]4C[C@@H]4C(=O)O)CC3(C)C)oc12 [Example I-197],0.048,0.076,> 1,> 1,–,–
CC1(C(=O)O)CCC(C(=O)N2CCN(C(=O)c3cc4nc(-c5ccc(F)cc5)cc(C(C)(C)C)c4o3)C(C)(C)C2)CC1 (stereo not shown) [Example I-198],0.0001,0.0008,> 1,> 1,–,–
CC(C)(C)c1cc(-c2ccc(F)cc2)nc2cc(C(=O)N3CCN(C(=O)C4(C(N)=O)CC4)CC3(C)C)oc12 [Example I-199],0.017,0.027,> 1,> 1,–,–
CC(C)(C)c1cc(-c2ccc(F)cc2)nc2cc(C(=O)N3CCN(S(=O)(=O)C4CC4)CC3(C)C)oc12 [Example I-200],0.003,0.006,> 1,> 1,–,–
CC1(C)C(=O)NCCN1C(=O)c1cc2nc(-c3ccc(F)cc3)cc(C3CCCC3)c2o1 [Example I-203],0.005,0.01,> 1,> 1,–,–
CC1(O)CC(C(=O)C2CCN(C(=O)c3cc4nc(-c5ccc(F)cc5)cc(C5(C#N)CC(F)(F)C5)c4o3)C(C)(C)C2)C1 (stereo not shown) [Example I-204],0.006,0.004,–,–,> 1,> 1
CC1(C)CN(C(=O)C2CC(O)(C(F)(F)F)C2)CCN1C(=O)c1cc2nc(-c3ccc(F)cc3)cc(C3(C#N)CC(F)(F)C3)c2o1 (stereo not shown) [Example I-205],0.0006,0.001,> 1,> 1,–,–
CC(C)(C)c1cc(-c2ccc(F)cc2)nc2cc(C(=O)N3CCN(CC(=O)O)C(=O)C3(C)C)oc12 [Example I-209],0.22,0.37,> 1,> 1,–,–
COCCN1CCN(C(=O)c2cc3nc(-c4ccc(F)cc4)cc(C(C)(C)C)c3o2)C(C)(C)C1=O [Example I-210],0.002,0.003,> 1.5,> 1.5,–,–
CC1(C)C(=O)NCCN1C(=O)c1cc2nc(-c3ccc(F)cc3)cc(C3CCCCC3)c2o1 [Example I-211],0.007,0.017,> 2,> 2,–,–
CC1(C)C(=O)NCCN1C(=O)c1cc2nc(-c3ccc(F)cc3)cc(C3CCC(F)(F)CC3)c2o1 [Example I-212],0.013,0.043,> 2,> 2,–,–
CC(C)(C)c1cc(C2CCCCCC2)nc2cc(C(=O)N3CCNC(=O)C3(C)C)oc12 [Example I-214],0.027,0.026,> 1,> 1,–,–
CC(C)(C)c1cc(C2CCC(F)(F)CC2)nc2cc(C(=O)N3CCNC(=O)C3(C)C)oc12 [Example I-216],0.068,0.24,> 1,> 1,–,–
CNS(=O)(=O)CC(=O)N1CCN(C(=O)c2cc3nc(C4CCC(F)(F)CC4)cc(C(C)(C)C)c3o2)C(C)(C)C1=O [Example I-219],0.039,0.05,–,–,> 2,> 2
CC(C)(C)c1cc(C2CCC(F)(F)CC2)nc2cc(C(=O)N3CCN(C(=O)[C@H]4CC[C@@](C)(C(=O)O)CC4)C(=O)C3(C)C)oc12 [Example I-220],0.0067,0.013,–,–,> 2,> 2
Cc1nc(C(=O)N2CCN(C(=O)c3cc4nc(C5CCC(F)(F)CC5)cc(C(C)(C)C)c4o3)C(C)(C)C2=O)n[nH]1 [Example I-221],0.032,0.058,–,–,> 2,> 2
CC(C)(C)c1cc(C2CCC(F)(F)CC2)nc2cc(C(=O)N3CCN(C(=O)CNS(C)(=O)=O)C(=O)C3(C)C)oc12 [Example I-222],0.275,0.73,–,–,> 2,> 2
Cc1cc(C(=O)N2CCN(C(=O)c3cc4nc(C5CCC(F)(F)CC5)cc(C(C)(C)C)c4o3)C(C)(C)C2=O)[nH]n1 [Example I-223],0.0138,0.039,–,–,> 2,> 2

# The remaining molecules from weak to strong by IC50 (PAR2 (HT-29 cells) [1]), led by results:
IC50 (PAR2 (HT-29 cells) [1]) [µM],IC50 (PAR2 (HT-29 cells) [2]) [µM],IC50 ([3]; Homo sapiens) [µM],IC50 ([4]; Homo sapiens) [µM],IC50 [3] [µM],IC50 [4] [µM],SMILES
0.403,0.713,> 1,> 1,–,–,CC(C)(C)c1cc(-c2ccc(F)cc2)nc2cc(C(=O)N3CCN(C(=O)C45CC(C(=O)O)(C4)C5)CC3(C)C)oc12 [Example I-191]
0.26,0.19,> 1,> 1,–,–,CC(C)(C)c1cc(-c2ccc(F)cc2)nc2cc(C(=O)N3CCN(C(=O)C4(C(=O)O)CC4)CC3(C)C)oc12 [Example I-193]
0.096,0.3,> 1,> 1,–,–,CC(C)(C)c1cc(C2CCCC2)nc2cc(C(=O)N3CCNC(=O)C3(C)C)oc12 [Example I-215]
0.036,0.044,> 2,> 2,–,–,CC(C)(C)c1cc(C2CCC(Cl)(Cl)CC2)nc2cc(C(=O)N3CCNC(=O)C3(C)C)oc12 [Example I-218]
0.013,0.022,> 2,> 2,–,–,"CC1(C)CCC(c2cc(C(C)(C)C)c3oc(C(=O)N4CCNC(=O)C4(C)C)cc3n2)CC1 [Example I-217, 4-[7-tert-butyl-5-(4,4-dimethylcyclohexyl)furo[3,2-b]pyridine-2-carbonyl]-3,3-dimethyl-piperazin-2-one]"
0.011,0.013,0.52,0.76,–,–,COC(=O)C12CC(C(=O)N3CCN(C(=O)c4cc5nc(-c6ccc(F)cc6)cc(C(C)(C)C)c5o4)C(C)(C)C3)(C1)C2 [Example I-190]
0.01,0.02,> 1,> 1,–,–,CC(C)(C)c1cc(-c2ccc(F)cc2)nc2cc(C(=O)N3CCN(C(=O)c4n[nH]c(=O)[nH]4)CC3(C)C)oc12 [Example I-187]
0.009,0.022,> 1,> 1,–,–,CC(C)(C)c1cc(-c2ccc(F)cc2)nc2cc(C(=O)N3CCN(C(=O)CCC(=O)O)CC3(C)C)oc12 [Example I-194]
0.008,0.053,> 2,> 2,–,–,CC(C)(C)c1cc(-c2ccc(F)cc2)nc2cc(C(=O)N3CCN(C(=O)CCS(C)(=O)=O)CC3(C)C)oc12 [Example I-213]
0.005,0.005,> 1,> 1,–,–,CCC(C)c1cc(-c2ccc(F)cc2)nc2cc(C(=O)N3CCNC(=O)C3(C)C)oc12 (stereo not shown) [Example I-202]
0.004,0.007,> 1,> 1,–,–,CC(C)(C)c1cc(-c2ccc(F)cc2)nc2cc(C(=O)N3CCN(S(=O)(=O)c4c[nH]cn4)CC3(C)C)oc12 [Example I-201]
0.004,0.004,> 1,> 1,–,–,CN1CCN(C(=O)c2cc3nc(-c4ccc(F)cc4)cc(C(C)(C)C)c3o2)C(C)(C)C1=O [Example I-206]
0.0012,0.0051,> 1,> 1,–,–,CC(C)(C)c1cc(-c2ccc(F)cc2)nc2cc(C(=O)N3CCN(C(=O)c4ccccn4)CC3(C)C)oc12 [Example I-185]
